In patent publication US8748462B2, “Spirocyclic GPR40 modulators” (Amgen Inc., priority 2008, dated 2014) one finds EC50 data, which are given here for 27 compounds.

The target in assay [1] is T1, human GPR40 (Homo sapiens, UniProt O14842).
T1 construct: expressed in transfected cells; host or cells: CHO cells stably transfected with GPR40 and Aequorin
Kind of assay: Cell-based aequorin assay. The conditions noted are these: CHO cells stably transfected with GPR40 and aequorin; 0.01% HSA. As for the experimental part: Cell-based aequorin assays were employed to characterize the modulatory activity of compounds on the GPR40 signaling pathway. In an exemplary assay, CHO cells were stably transfected with both GPR40 and Aequorin (Euroscreen). Cells were detached from the tissue culture dish with 2 mL of trypsin (0.25% (w/v)). Trypsinization was halted with 28 mL of Hanks Buffered Salt Solution containing 20 mM Hepes (H/HBSS) and 0.01% fatty acid-free human serum albumin (HSA). Coelantrazine is added to 1 ug/mL, and the cells were incubated for 2 hours at room temperature. Compounds were dissolved in DMSO for preparation of 10 mM stock solutions. Compounds were diluted in H/HBSS containing 0.01% HSA. Serial dilutions of the test compounds were prepared to determine dose response.
Aequorin luminescence measurements were made using an EG&G Berthold 96-well luminometer, and the response was measured over a 20 second interval after cells and compounds were mixed. The maximum relative light units was plotted to determine dose response. The EC50 (effective concentration to reach 50% maximal response) was determined from the dose response plot.

Assay [2] concerns the target T1, human GPR40. Kind of assay: Inositol phosphate accumulation assay. The conditions noted are these: A9 cell line stably transfected with GPR40; 1 hour at 37° C.; read-out: IP3 EC50. The assay is classed as cell-based. The protocol:
An A9 cell line stably transfected with GPR40 (A9_GPR40) was used in IP accumulation assays. A9_GPR40 cells were plated in 96-well plates containing 20,000 cells/well in DMEM containing 10% FBS. After the cells attached to the well surface, the media was replaced with inositol free DMEM containing 10% dialyzed FBS and 1 μCi, mL ^3H-inositol and incubated for 16 hours. Compounds were diluted in HBSS/10 mM LiCl containing a desired amount of HSA and added directly to cells. Following 1 hour incubation at 37° C., the media was replaced with 100 μL of 20 mM formic acid to quench the reaction. 50 μL of the extract was then added to 100 μL of SPA beads, incubated overnight, and measured on a TopCount the following day.

pEC50: −log10 of the molar value.

T1 sequence (O14842 whole entry): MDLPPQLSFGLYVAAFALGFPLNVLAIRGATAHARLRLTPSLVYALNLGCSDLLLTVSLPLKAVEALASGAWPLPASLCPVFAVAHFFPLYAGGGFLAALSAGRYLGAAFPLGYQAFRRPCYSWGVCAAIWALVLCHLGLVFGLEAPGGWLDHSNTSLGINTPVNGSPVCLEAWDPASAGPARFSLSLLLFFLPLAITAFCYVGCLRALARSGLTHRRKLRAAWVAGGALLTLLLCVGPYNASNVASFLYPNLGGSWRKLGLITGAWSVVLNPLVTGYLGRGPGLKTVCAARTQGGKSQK

The pEC50 is the EC50 on a negative log10 scale, so that one unit is a factor of ten. `COc1cc(-c2ccc(COc3ccc4c(c3)[C@]3(CCC4)C[C@H]3C(=O)O)cc2[C@H](OC)C(C)(C)C)c(Cl)cn1` (racemic) [Example 139]: the pEC50 is 6.00 to 7.00 in assay [1] and over 8.00 in assay [2].
In the case of `COc1ccc(F)c(-c2ccc(COc3ccc4c(c3)[C@]3(CC4)C[C@H]3C(=O)O)cc2[C@@H]2CCCC2(C)C)c1` (single isomer, unassigned) [Example 9], the pEC50 in assay [1] is 6.00 to 7.00; in assay [2], 7.00 to 8.00.
On to `COc1ccc(F)c(-c2ccc(COc3ccc4c(c3)[C@]3(CC4)C[C@H]3C(=O)O)cc2[C@H]2CCCC2(C)C)c1` (single isomer, unassigned) [Example 11], for which the values for the pEC50 in assay [1] and in assay [2] were 7.00 to 8.00 and over 8.00, respectively.
For `COc1ccc(F)c(-c2ccc(COc3ccc4c(c3)[C@]3(CC4)C[C@H]3C(=O)O)cc2[C@@H](OC)C(C)(C)C)c1` (single isomer, unassigned) [Example 12], in that order: 7.00 to 8.00 and over 8.00.
For `COc1ccc(F)c(-c2cc(F)c(COc3ccc4c(c3)[C@]3(CC4)C[C@H]3C(=O)O)cc2[C@H]2CCCC2(C)C)c1` (single isomer, unassigned) [Example 14], in that order: 6.00 to 7.00 and over 8.00.
As for `COc1ccc(F)c(-c2ccc(COc3ccc4c(c3)[C@]3(CC4)C[C@H]3C(=O)O)cc2[C@H]2CCCCC2(C)C)c1` (single isomer, unassigned) [Example 15], the pEC50 was 7.00 to 8.00 in assay [1] and over 8.00 in assay [2].
For `COc1ccc(F)c(-c2c(F)cc(COc3ccc4c(c3)[C@]3(CC4)C[C@H]3C(=O)O)cc2[C@H]2CCCC2(C)C)c1` (single isomer, unassigned) [Example 16], in that order: 7.00 to 8.00 and over 8.00.
On to `COc1cc(-c2cc(F)c(COc3ccc4c(c3)[C@]3(CC4)C[C@H]3C(=O)O)cc2[C@@H]2CCCC2(C)C)c(F)cn1` (single isomer, unassigned) [Example 17], for which the pEC50 in assay [1] is 7.00 to 8.00; in assay [2] it was over 8.00.
As to `COc1ccc(F)c(-c2c(F)cc(COc3ccc4c(c3)[C@]3(CC4)C[C@H]3C(=O)O)cc2[C@@H]2CCCC2(C)C)c1` (single isomer, unassigned) [Example 18], the pEC50 was 6.00 to 7.00 in assay [1] and over 8.00 in assay [2].
For `COc1cc(-c2ccc(COc3ccc4c(c3)[C@]3(CC4)C[C@H]3C(=O)O)cc2[C@@H](OC)C(C)(C)C)c(F)cn1` (single isomer, unassigned) [Example 28], in that order: 6.00 to 7.00 and over 8.00.
Consider `COc1cc(-c2ccc(COc3ccc4c(c3F)[C@]3(CC4)C[C@H]3C(=O)O)cc2[C@@H](OC)C(C)(C)C)c(F)cn1` (single isomer, unassigned) [Example 30], for which the pEC50 was 7.00 to 8.00 in assay [1] and over 8.00 in assay [2].
Regarding `COc1ccc(F)c(-c2ccc(COc3ccc4c(c3F)[C@]3(CC4)C[C@H]3C(=O)O)cc2[C@@H](OC)C(C)(C)C)c1` (single isomer, unassigned) [Example 31], the pEC50 is 7.00 to 8.00 in assay [1] and over 8.00 in assay [2].
For `COc1cc(-c2ccc(COc3ccc4c(c3F)[C@]3(CC4)C[C@H]3C(=O)O)cc2[C@@H]2CCCC2(C)C)c(F)cn1` (single isomer, unassigned) [Example 32], in that order: 6.00 to 7.00 and over 8.00.
For `COc1ccc(F)c(-c2ccc(COc3cc(F)c4c(c3F)[C@]3(CC4)C[C@H]3C(=O)O)cc2[C@H]2CCCC2(C)C)c1` (single isomer, unassigned) [Example 33], in that order: 6.00 to 7.00 and over 8.00.
For `COc1cc(-c2ccc(COc3cc(F)c4c(c3F)[C@]3(CC4)C[C@H]3C(=O)O)cc2[C@@H]2CCCC2(C)C)c(F)cn1` (single isomer, unassigned) [Example 41, (1R,2R)-6′-(3-((R)-2,2-dimethylcyclopentyl)-4-(5-fluoro-2-methoxypyridin-4-yl)benzyloxy)-4′,7′-difluoro-2′,3′-dihydrospiro[cyclopropane-1,1′-indene]-2-carboxylic acid or (1S,2S)-6′-(3-((R)-2,2-dimethylcyclopentyl)-4-(5-fluoro-2-methoxypyridin-4-yl)benzyloxy)-4′,7′-difluoro-2′,3′-dihydrospiro[cyclopropane-1,1′-indene]-2-carboxylic acid], in that order: 6.00 to 7.00 and over 8.00.
For the compound `COc1cc(-c2ccc(COc3ccc4c(c3)[C@]3(CCC4)C[C@H]3C(=O)O)cc2[C@@H](OC)C(C)(C)C)c(F)cn1` (single isomer, unassigned) [Example 44], the pEC50 is 7.00 to 8.00 in assay [1] and over 8.00 in assay [2].
For `COc1ccc(F)c(-c2cc(F)c(COc3ccc4c(c3)[C@]3(CCC4)C[C@H]3C(=O)O)cc2[C@H]2CCCC2(C)C)c1` (single isomer, unassigned) [Example 45], in that order: 6.00 to 7.00 and over 8.00.
As to `COc1ccc(F)c(-c2ccc(COc3ccc4c(c3)[C@]3(CCC4)C[C@H]3C(=O)O)cc2[C@@H](OC)C(C)(C)C)c1` (single isomer, unassigned) [Example 46], the pEC50 in assay [1] was 7.00 to 8.00; in assay [2], over 8.00.
Take `COc1ccc(F)c(-c2ccc(COc3ccc4c(c3)[C@]3(CCC4)C[C@H]3C(=O)O)cc2[C@H]2CCCC2(C)C)c1` (single isomer, unassigned) [Example 47]: the figures for the pEC50 in assay [1] and in assay [2] were 7.00 to 8.00 and over 8.00, respectively.
`COc1ccc(F)c(-c2ccc(COc3ccc4c(c3F)[C@]3(CCC4)C[C@H]3C(=O)O)cc2[C@H]2CCCC2(C)C)c1` (single isomer, unassigned) [Example 51]: the results for the pEC50 in assay [1] and in assay [2] were 7.00 to 8.00 and over 8.00, respectively.
For `COc1ccc(F)c(-c2ccc(COc3ccc4c(c3F)[C@@]3(CCC4)C[C@@H]3C(=O)O)cc2[C@H]2CCCC2(C)C)c1` (single isomer, unassigned) [Example 52], in that order: under 5.00 and 5.00 to 6.00.
Consider `COc1cc(-c2ccc(COc3ccc4c(c3F)[C@]3(CCC4)C[C@H]3C(=O)O)cc2[C@@H](OC)C(C)(C)C)c(F)cn1` (single isomer, unassigned) [Example 53], for which the negative-log EC50 (pEC50) in assay [1] was 7.00 to 8.00; in assay [2], over 8.00.
Take `COc1ccc(F)c(-c2ccc(COc3ccc4c(c3F)[C@]3(CCC4)C[C@H]3C(=O)O)cc2[C@@H](OC)C(C)(C)C)c1` (single isomer, unassigned) [Example 54]: the pEC50 was 7.00 to 8.00 in assay [1] and over 8.00 in assay [2].
`COc1ccc(F)c(-c2cc(F)c(COc3ccc4c(c3F)[C@]3(CCC4)C[C@H]3C(=O)O)cc2[C@H]2CCCC2(C)C)c1` (single isomer, unassigned) [Example 56]: the pEC50 in assay [1] is 6.00 to 7.00; in assay [2], over 8.00.
For `COc1cc(-c2cc(F)c(COc3ccc4c(c3F)[C@]3(CCC4)C[C@H]3C(=O)O)cc2[C@H]2CCCC2(C)C)c(F)cn1` (single isomer, unassigned) [Example 57], in that order: 6.00 to 7.00 and over 8.00.
`COc1cc(-c2ccc(COc3cc4c(cn3)CC[C@]43C[C@H]3C(=O)O)cc2[C@@H](OC)C(C)(C)C)c(F)cn1` (single isomer, unassigned) [Example 58, (2′R,5R)-3-({4-(5-Fluoro-2-methoxypyridin-4-yl)-3-1[(1S)-1-methoxy-2,2-dimethylpropyl]phenyl}methoxy)-6,7-dihydrospiro[cyclopenta[c]pyridine-5,1′-cyclopropane]-2′-carboxylic acid or (2′R,5R)-3-({4-(5-fluoro-2-methoxypyridin-4-yl)-3-[(1R)-1-methoxy-2,2-dimethylpropyl]phenyl}methoxy)-6,7-dihydrospiro[cyclopenta[c]pyridine-5,1′-cyclopropane]-2′-carboxylic acid]: the pEC50 in assay [1] is 6.00 to 7.00; in assay [2], over 8.00.
For `COc1cc(-c2ccc(COc3cc4c(cn3)CC[C@@]43C[C@@H]3C(=O)O)cc2[C@@H](OC)C(C)(C)C)c(F)cn1` (single isomer, unassigned) [Example 59, (2′S,5S)-3-({4-(5-Fluoro-2-methoxypyridin-4-yl)-3-[(1S)-1-methoxy-2,2-dimethylpropyl]phenyl}methoxy)-6,7-dihydrospiro[cyclopenta[c]pyridine-5,1′-cyclopropane]-2′-carboxylic acid or (2′S,5S)-3-({4-(5-fluoro-2-methoxypyridin-4-yl)-3-[(1R)-1-methoxy-2,2-dimethylpropyl]phenyl}methoxy)-6,7-dihydrospiro[cyclopenta[c]pyridine-5,1′-cyclopropane]-2′-carboxylic acid], in that order: 6.00 to 7.00 and 6.00 to 7.00.
